Values quoted from earlier work, collected in patent US20180318450A1, “ENHANCED SURGICAL VISUALIZATION OF VIABLE TISSUE WITH SELECTIVE DYE” (priority 2017, published 2018).
Starred links: 1 amine or outer side, 2 acyl side, 3 side chain; linkers in the order of their positions; H or OH if unused. Positions of bridges follow the written chain, without caps; N, C: chain ends. Non-standard residues stand in square brackets, D forms with d. Residues, ends and D or L forms follow the SMILES beside them. Trp(2-yl) = O=C([C@H](Cc1c([*:3])[nH]c2ccccc12)N[*:1])[*:2]; Leu(4R-OH,5-OH) = C[C@](O)(CO)C[C@H](N)C(=O)O; cisHyp = O=C(O)[C@@H]1C[C@H](O)CN1

System: tumor proliferation
Conditions: toxin attached to C-terminus of ph low insertion peptide, cells in acidic environment

For `C[C@@H]1NC(=O)[C@H](C[C@@](C)(O)CO)NC(=O)[C@@H]2Cc3c([nH]c4ccccc34)SC[C@H](NC(=O)[C@@H]([C@H](C)O)NC1=O)C(=O)N1C[C@@H](O)C[C@H]1C(=O)N[C@@H](C)C(=O)N2` [phalloidin] (cyclo(A[dT]C[cisHyp]A[Trp(2-yl)][Leu(4R-OH,5-OH)]); thioether 3-6), the tumor proliferation is given as “prohibited tumor proliferation”.
